Source: patent publication US12077503B2, “Substituted cyclic amides and their use as herbicides” (FMC CORPORATION, priority 2015, dated 2024)
Read-outs that look alike come from different tables or passages of the source.

Columns and labels:
Format in all cases: in vivo
[1] = test system: Kochia (Kochia scoparia); test: Test A preemergence; conditions: Bassia scoparia, pre-emergence, 240 h; for pest or weed control at 125 g/ha: 125 g ai/ha
How it was run: (§1)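 Ratings of 0 (no effect) to 100 (complete control) come from visual comparison with untreated controls roughly 10 d after treatment. Test chemicals, formulated in a non-phytotoxic solvent mixture with surfactant, were applied either as a preemergence directed soil spray on seeded soil or postemergence to one- to two-leaf plants 2 to 10 cm tall.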

[2] = test system: barnyardgrass (Echinochloa crus-galli); test: Test A preemergence; conditions: Echinochloa crus-galli, pre-emergence, 240 h; for pest or weed control at 125 g/ha: 125 g ai/ha, Preemergence, visual injury rating after approximately 10 d, read-out: Barnyardgrass plant response rating (0 to 100 scale, 0 is no effect, 100 is complete control); for pest or weed control at 500 g/ha: 500 g ai/ha, preemergence, visual injury rating about 10 d after treatment, 0 to 100 scale (0 no effect, 100 complete control), read-out: Barnyardgrass plant response rating
How it was run: as §1

[3] = test system: giant foxtail (Setaria faberii); test: Test A preemergence; conditions: Setaria faberi, pre-emergence, 240 h; for pest or weed control at 125 g/ha: 125 g ai/ha, Preemergence, visual injury rating after approximately 10 d, read-out: Foxtail, Giant plant response rating (0 to 100 scale, 0 is no effect, 100 is complete control); for pest or weed control at 500 g/ha: 500 g ai/ha, preemergence, visual injury rating about 10 d after treatment, 0 to 100 scale (0 no effect, 100 complete control), read-out: Foxtail, Giant plant response rating
How it was run: as §1

[4] = test system: pigweed (Amaranthus retroflexus); test: Test A preemergence; conditions: Amaranthus retroflexus, pre-emergence, 240 h; for pest or weed control at 125 g/ha: 125 g ai/ha; for pest or weed control at 500 g/ha: 500 g ai/ha, visual injury rating about 10 d after treatment, 0 to 100 scale (0 no effect, 100 complete control)
[5] = test system: ragweed (common ragweed, Ambrosia elatior); test: Test A preemergence; conditions: Ambrosia artemisiifolia, pre-emergence, 240 h; for pest or weed control at 125 g/ha: 125 g ai/ha
How it was run: as §1

[6] = test system: ryegrass, Italian (Italian ryegrass, Lolium multiflorum); test: Test A preemergence; conditions: Lolium multiflorum, pre-emergence, 240 h; for pest or weed control at 125 g/ha: 125 g ai/ha; for pest or weed control at 500 g/ha: 500 g ai/ha, visual injury rating about 10 d after treatment, 0 to 100 scale (0 no effect, 100 complete control)
How it was run: as §1

[7] = test system: Galium (catchweed bedstraw, Galium aparine); test: Test A postemergence; conditions: Galium, post-emergence, 240 h, postemergence; for pest or weed control at 125 g/ha: 125 g ai/ha, visual injury on 0 to 100 scale (0 no effect, 100 complete control); for pest or weed control at 500 g/ha: 500 g ai/ha
How it was run: as §1

[8] = test system: Kochia (Kochia scoparia); test: Test A postemergence; conditions: Bassia scoparia, post-emergence, 240 h, postemergence, read-out: Kochia plant response rating; for pest or weed control at 125 g/ha: 125 g ai/ha, visual injury on 0 to 100 scale (0 no effect, 100 complete control), approx. 10 d
How it was run: as §1

[9] = test system: barnyardgrass (Echinochloa crus-galli); test: Test A postemergence; conditions: Echinochloa crus-galli, post-emergence, 240 h, postemergence; for pest or weed control at 125 g/ha: 125 g ai/ha, visual injury on 0 to 100 scale (0 no effect, 100 complete control); for pest or weed control at 500 g/ha: 500 g ai/ha
How it was run: as §1

[10] = test system: blackgrass (Alopecurus myosuroides); test: Test A postemergence; conditions: Alopecurus myosuroides, post-emergence, 240 h, postemergence; for pest or weed control at 125 g/ha: 125 g ai/ha, visual injury on 0 to 100 scale (0 no effect, 100 complete control); for pest or weed control at 500 g/ha: 500 g ai/ha
How it was run: as §1

[11] = test system: corn (Zea mays); test: Test A postemergence; conditions: Zea mays, post-emergence, 240 h, postemergence; for plant injury at 125 g/ha: 125 g ai/ha, visual injury on 0 to 100 scale (0 no effect, 100 complete control)
How it was run: as §1

[12] = test system: giant foxtail (Setaria faberii); test: Test A postemergence; conditions: Setaria faberi, post-emergence, 240 h, postemergence; for pest or weed control at 125 g/ha: 125 g ai/ha, visual injury on 0 to 100 scale (0 no effect, 100 complete control); for pest or weed control at 500 g/ha: 500 g ai/ha
How it was run: as §1

[13] = test system: pigweed (Amaranthus retroflexus); test: Test A postemergence; conditions: Amaranthus retroflexus, post-emergence, 240 h, postemergence, read-out: Pigweed plant response rating; for pest or weed control at 125 g/ha: 125 g ai/ha, visual injury on 0 to 100 scale (0 no effect, 100 complete control), approx. 10 d
How it was run: as §1

[14] = test system: ryegrass, Italian (Italian ryegrass, Lolium multiflorum); test: Test A postemergence; conditions: Lolium multiflorum, post-emergence, 240 h, postemergence, read-out: Ryegrass, Italian plant response rating; for pest or weed control at 125 g/ha: 125 g ai/ha, visual injury on 0 to 100 scale (0 no effect, 100 complete control), approx. 10 d
How it was run: as §1

[15] = test system: wheat (Triticum aestivum); test: Test A postemergence; conditions: Triticum aestivum, post-emergence, 240 h, postemergence, read-out: Wheat plant response rating; for plant injury at 125 g/ha: 125 g ai/ha, visual injury on 0 to 100 scale (0 no effect, 100 complete control), approx. 10 d
How it was run: as §1

[16] = preemergence, read-out: Pigweed plant response rating
[17] = preemergence, read-out: Ryegrass, Italian plant response rating
[18] = approx. 10 d, read-out: Galium plant response rating
[19] = approx. 10 d, read-out: Barnyardgrass plant response rating
[20] = approx. 10 d, read-out: Blackgrass plant response rating
[21] = approx. 10 d, read-out: Corn plant response rating
[22] = approx. 10 d, read-out: Foxtail, Giant plant response rating
[23] = 500 g ai/ha, 0 to 100 scale, 0 is no effect, 100 is complete control

Cc1cc([C@H]2CNC(=O)[C@@H]2C(=O)Nc2ccccc2S(C)(=O)=O)ccc1C(F)(F)F [Compound 1041]
pest or weed control at 125 g/ha ([1]; Preemergence, visual injury rating after approximately 10 d, read-out: Kochia plant response rating (0 to 100 scale, 0 is no effect, 100 is complete control)): 30% | pest or weed control at 125 g/ha [2]: 30% | pest or weed control at 500 g/ha [2]: 60% | pest or weed control at 125 g/ha [3]: 80% | pest or weed control at 500 g/ha [3]: 90% | pest or weed control at 125 g/ha ([4]; Preemergence, visual injury rating after approximately 10 d, read-out: Pigweed plant response rating (0 to 100 scale, 0 is no effect, 100 is complete control)): 0% | pest or weed control at 500 g/ha [4, 16]: 20% | pest or weed control at 125 g/ha ([5]; Preemergence, visual injury rating after approximately 10 d, read-out: Ragweed plant response rating (0 to 100 scale, 0 is no effect, 100 is complete control)): 20% | pest or weed control at 125 g/ha ([6]; Preemergence, visual injury rating after approximately 10 d, read-out: Ryegrass, Italian plant response rating (0 to 100 scale, 0 is no effect, 100 is complete control)): 0% | pest or weed control at 500 g/ha [6, 17]: 0% | pest or weed control at 125 g/ha [7, 18]: 40% | pest or weed control at 500 g/ha ([7]; visual injury, 0 to 100 scale (0 no effect, 100 complete control), approx. 10 d, read-out: Plant response rating, Galium): 60% | pest or weed control at 125 g/ha [8]: 0% | pest or weed control at 125 g/ha [9, 19]: 0% | pest or weed control at 500 g/ha ([9]; visual injury, 0 to 100 scale (0 no effect, 100 complete control), approx. 10 d, read-out: Plant response rating, Barnyardgrass): 50% | pest or weed control at 125 g/ha [10, 20]: 0% | pest or weed control at 500 g/ha ([10]; visual injury, 0 to 100 scale (0 no effect, 100 complete control), approx. 10 d, read-out: Plant response rating, Blackgrass): 40% | plant injury at 125 g/ha [11, 21]: 0% | Corn plant response rating (crop injury, 0 = no effect, 100 = complete kill) at 500 g/ha ([11]; 500 g ai/ha, visual injury, 0 to 100 scale (0 no effect, 100 complete control), approx. 10 d): 30% | pest or weed control at 125 g/ha [12, 22]: 0% | pest or weed control at 500 g/ha ([12]; visual injury, 0 to 100 scale (0 no effect, 100 complete control), approx. 10 d, read-out: Plant response rating, Foxtail, Giant): 50% | pest or weed control at 125 g/ha [13]: 0% | pest or weed control at 125 g/ha [14]: 0% | plant injury at 125 g/ha [15]: 0%

CCc1cccc([C@H]2CCNC(=O)[C@@H]2C(=O)Nc2cccc(F)c2F)c1 [Compound 1058]
pest or weed control at 125 g/ha ([1]; preemergence, 0 to 100 scale where 0 is no effect and 100 is complete control, approx. 10 d, read-out: Kochia plant response rating): 0% | pest or weed control at 500 g/ha ([1]; 500 g ai/ha, preemergence, visual injury rating about 10 d after treatment, 0 to 100 scale (0 no effect, 100 complete control), read-out: Kochia plant response rating): 30% | pest or weed control at 125 g/ha [2]: 90% | pest or weed control at 500 g/ha [2]: 100% | pest or weed control at 125 g/ha [3]: 90% | pest or weed control at 500 g/ha [3]: 100% | pest or weed control at 125 g/ha ([4]; preemergence, 0 to 100 scale where 0 is no effect and 100 is complete control, approx. 10 d, read-out: Pigweed plant response rating): 0% | pest or weed control at 500 g/ha [4, 16]: 0% | pest or weed control at 125 g/ha ([5]; preemergence, 0 to 100 scale where 0 is no effect and 100 is complete control, approx. 10 d, read-out: Ragweed plant response rating): 0% | pest or weed control at 500 g/ha ([5]; 500 g ai/ha, preemergence, visual injury rating about 10 d after treatment, 0 to 100 scale (0 no effect, 100 complete control), read-out: Ragweed plant response rating): 0% | pest or weed control at 125 g/ha ([6]; preemergence, 0 to 100 scale where 0 is no effect and 100 is complete control, approx. 10 d, read-out: Ryegrass, Italian plant response rating): 0% | pest or weed control at 500 g/ha [6, 17]: 40% | pest or weed control at 125 g/ha [7, 18]: 50% | pest or weed control at 500 g/ha ([7]; 0 to 100 scale, 0 is no effect, 100 is complete control, read-out: Galium plant response rating): 60% | pest or weed control at 125 g/ha [8]: 0% | pest or weed control at 500 g/ha [8, 23]: 20% | pest or weed control at 125 g/ha [9, 19]: 70% | pest or weed control at 500 g/ha ([9]; 0 to 100 scale, 0 is no effect, 100 is complete control, read-out: Barnyardgrass plant response rating): 90% | pest or weed control at 125 g/ha [10, 20]: 30% | pest or weed control at 500 g/ha ([10]; 0 to 100 scale, 0 is no effect, 100 is complete control, read-out: Blackgrass plant response rating): 40% | plant injury at 125 g/ha [11, 21]: 0% | plant injury at 500 g/ha ([11]; 500 g ai/ha, 0 to 100 scale, 0 is no effect, 100 is complete control, read-out: Corn plant response rating): 30% | pest or weed control at 125 g/ha [12, 22]: 0% | pest or weed control at 500 g/ha ([12]; 0 to 100 scale, 0 is no effect, 100 is complete control, read-out: Foxtail, Giant plant response rating): 0% | pest or weed control at 125 g/ha [13]: 0% | pest or weed control at 500 g/ha [13, 23]: 0% | pest or weed control at 125 g/ha [14]: 0% | pest or weed control at 500 g/ha [14, 23]: 0% | plant injury at 125 g/ha [15]: 0% | plant injury at 500 g/ha [15, 23]: 0%
